Marks after values point to notes of the source that are not given here.
Legend:
Format in all cases: in vivo
Details in all cases: 100 = 100% disease control
[1] = test system: Erysiphe graminis f. sp. tritici; assay: Test J: wheat powdery mildew on wheat seedlings, sprayed the day before inoculation, visual disease rating
Procedure, shortened: (§1)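 Test rate was 200 ppm, sprayed to run-off and equal to 500 g/ha, or 40 ppm where marked. The compound was first taken up in acetone at 3% of final volume and suspended in acetone/purified water (50/50) containing 250 ppm Trem® 014.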

Septoria tritici = assay: Test G: wheat leaf blotch on wheat seedlings, sprayed the day before inoculation, visual disease rating
Procedure, shortened: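 Compounds dissolved in acetone (3% of final volume), then suspended in 50/50 acetone/water with 250 ppm Trem® 014 and sprayed to run-off on seedlings at 200 ppm (≈500 g/ha) or 40 ppm where marked. Inoculation with spores followed next day; visual rating after 48 h saturated at 24° C plus 19 days at 20° C.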

Botrytis cinerea = assay: Test C: tomato Botrytis on tomato seedlings, sprayed the day before inoculation, visual disease rating
Procedure, shortened: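 Each compound is first taken up in acetone at 3% of the final volume and then brought to the desired ppm in a 50:50 acetone–water mix with 250 ppm surfactant (polyhydric alcohol esters). Tomato seedlings receive the suspension to run-off, normally at 200 ppm, occasionally 40 ppm.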

[2] = test system: Puccinia recondita f. sp. tritici; assay: Test H: wheat leaf rust, test suspension sprayed after inoculation of wheat seedlings, visual disease rating
Procedure, shortened: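 Wheat seedlings inoculated with P. recondita spores, held 24 h saturated at 20 °C, then 2 days in growth chamber at 20 °C; compound suspension (acetone/water with Trem 014) sprayed to run-off afterwards. Rated visually; 200 ppm (≈500 g/ha) unless marked *, which denotes 40 ppm.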

Alternaria solani = assay: Test D: tomato early blight, sprayed the day before inoculation, visual disease rating
Procedure, shortened: as §1

Septoria nodorum = assay: Test F: wheat glume blotch on wheat seedlings, sprayed the day before inoculation, visual disease rating
Procedure, shortened: as §1

[3] = test system: Puccinia recondita f. sp. tritici; assay: Test I: wheat leaf rust on wheat seedlings, sprayed the day before inoculation, visual disease rating
Procedure, shortened: as §1

[4] = 200 ppm, 0 = no control relative to controls
[5] = 40 ppm (marked *), 0 = no control

Row | Compound | Test J disease control rating [1, 4] [%] | Test G disease control rating (Septoria tritici; [4]) [%] | Test C disease control rating (Botrytis cinerea; [4]) [%] | Test H disease control rating [2, 4] [%] | Test D disease control rating (Alternaria solani; [4]) [%] | Test F disease control rating (Septoria nodorum; [4]) [%] | Test I disease control rating [3, 4] [%] | also measured
1 | COc1cc(F)c(-c2c(Cl)nc(Br)n2-c2cccc(Cl)c2)c(F)c1 [compound 483] | 100 | 94 | 100 | 32 | 99 | 0 | 98 | –
2 | COc1cc(F)c(-c2c(Cl)nc(Cl)n2-c2ccc(C)cc2F)c(F)c1 [compound 653] | – | – | – | – | – | – | – | Test J disease control rating ([1]; 40 ppm (marked *)): 99* %; Test G disease control rating (Septoria tritici; 40 ppm (marked *)): 100* %; Test C disease control rating (Botrytis cinerea; 40 ppm (marked *)): 99* %; Test H disease control rating ([2]; 40 ppm (marked *)): 99* %; Test D disease control rating (Alternaria solani; 40 ppm (marked *)): 99* %; Test F disease control rating (Septoria nodorum; 40 ppm (marked *)): 78* %; Test I disease control rating ([3]; 40 ppm (marked *)): 100* %
3 | Fc1ccc(-n2c(Br)nc(Br)c2-c2ccc(Cl)c(F)c2)c(Cl)c1 [compound 301] | 96 | 95 | 100 | 6 | 94 | 0 | 91 | –
4 | COc1ccc(Cl)c(-c2c(Cl)nc(Cl)n2-c2ccc(Cl)cc2)c1F [compound 518] | 100 | 98 | 100 | 0 | 99 | 99 | 98 | –
5 | COc1cc(F)c(-c2c(Cl)nc(C)n2-c2ccc(OC)nc2)c(F)c1 [compound 714] | 100 | 99 | 100 | 100 | 100 | 100 | 100 | –
6 | Fc1cc(-n2c(Cl)nc(CCl)c2-c2cccnc2Cl)ccc1Cl [compound 359] | 0 | 35 | 98 | 0 | 0 | 0 | 80 | –
7 | Cc1nc(Cl)c(-c2c(F)cc(F)cc2F)n1-c1cccc(OC(F)(F)F)c1 [compound 611] | 57 | 81 | 91 | 0 | 66 | 0 | 16 | –
8 | N#Cc1ccc(F)c(-c2c(Cl)nc(Br)n2-c2ccc(Cl)cc2)c1F [Compound 419, 3-[2-bromo-4-chloro-1-(4-chlorophenyl)-1H-imidazol-5-yl]-2,4-difluorobenzonitrile] | – | – | – | – | – | – | – | pest or weed control at 200 ppm ([1]; Blumeria graminis, 168 h, 200 ppm, 0 = no control relative to controls): 99%; pest or weed control at 200 ppm (Septoria tritici; Zymoseptoria tritici, 504 h, 200 ppm, 0 = no control relative to controls): 100%; pest or weed control at 200 ppm (Botrytis cinerea; Botrytis cinerea, 120 h, 200 ppm, 0 = no control relative to controls): 100%; pest or weed control at 200 ppm ([2]; Puccinia recondita, 96 h, 200 ppm, 0 = no control relative to controls): 0%; pest or weed control at 200 ppm (Alternaria solani; Alternaria solani, 168 h, 200 ppm, 0 = no control relative to controls): 100%; pest or weed control at 200 ppm (Septoria nodorum; Parastagonospora nodorum, 264 h, 200 ppm, 0 = no control relative to controls): 100%; pest or weed control at 200 ppm ([3]; Puccinia recondita, 168 h, 200 ppm, 0 = no control relative to controls): 97%
9 | Fc1cc(-n2c(Cl)nc(Cl)c2-c2ccnc(Br)c2)ccc1Cl [compound 485] | 98 | 95 | 96 | 0 | 88 | 0 | 98 | –
10 | COc1cc(F)c(-n2c(Cl)nc(CCl)c2-c2ccc(C)cc2)c(F)c1 [compound 581] | – | – | – | – | – | – | – | Test J disease control rating ([1]; 40 ppm (marked *)): 21* %; Test G disease control rating (Septoria tritici; 40 ppm (marked *)): 96* %; Test C disease control rating (Botrytis cinerea; 40 ppm (marked *)): 99* %; Test H disease control rating ([2]; 40 ppm (marked *)): 84* %; Test D disease control rating (Alternaria solani; 40 ppm (marked *)): 33* %; Test F disease control rating (Septoria nodorum; 40 ppm (marked *)): 0* %; Test I disease control rating ([3]; 40 ppm (marked *)): 98* %
11 | COc1ccc(F)c(-c2c(Cl)ncn2-c2ccc(C)c(F)c2)c1F [compound 520] | 100 | 97 | 100 | 0 | 100 | 0 | 99 | –
12 | COc1cc(F)c(-n2cnc(C)c2-c2ccc(Cl)cc2)c(F)c1 [compound 688] | – | – | – | – | – | – | – | Test J disease control rating ([1]; 40 ppm (marked *)): 78* %; Test G disease control rating (Septoria tritici; 40 ppm (marked *)): 97* %; Test C disease control rating (Botrytis cinerea; 40 ppm (marked *)): 100* %; Test H disease control rating ([2]; 40 ppm (marked *)): 8* %; Test D disease control rating (Alternaria solani; 40 ppm (marked *)): 33* %; Test F disease control rating (Septoria nodorum; 40 ppm (marked *)): 0* %; Test I disease control rating ([3]; 40 ppm (marked *)): 0* %
13 | Cc1nc(Cl)n(-c2ccc(Cl)nc2)c1-c1c(F)ccc(C#N)c1F [compound 716] | 99 | 100 | 100 | 100 | 100 | 95 | 99 | –
14 | COc1cc(OC)cc(-c2c(Br)nc(C)n2-c2c(F)cc([N+](=O)[O-])cc2F)c1 [compound 651] | 79 | 97 | 97 | 0 | 0 | 60 | 95 | –
15 | Cc1nc(Cl)n(-c2ccc(F)cc2)c1-c1c(F)ccc(F)c1F [compound 413] | – | – | – | – | – | – | – | Test J disease control rating [1, 5]: 0* %; Test G disease control rating (Septoria tritici; [5]): 14* %; Test C disease control rating (Botrytis cinerea; [5]): 100* %; Test H disease control rating [2, 5]: 9* %; Test D disease control rating (Alternaria solani; [5]): 99* %; Test F disease control rating (Septoria nodorum; [5]): 0* %; Test I disease control rating [3, 5]: 0* %
16 | Fc1cccc(-n2cnc(Cl)c2-c2c(F)ccc(Br)c2F)c1 [compound 623] | 100 | 97 | 98 | 0 | 33 | 0 | 98 | –
17 | COc1cc(F)c(-c2c(Cl)nc(Cl)n2Cc2ccc(Cl)cc2)c(F)c1 [compound 284] | – | – | – | – | – | – | – | Test J disease control rating ([1]; 200 ppm, 0 = no control): 100%; Test G disease control rating (Septoria tritici; 200 ppm, 0 = no control): 95%; Test C disease control rating (Botrytis cinerea; 200 ppm, 0 = no control): 100%; Test H disease control rating ([2]; 200 ppm, 0 = no control): 6%; Test D disease control rating (Alternaria solani; 200 ppm, 0 = no control): 99%; Test F disease control rating (Septoria nodorum; 200 ppm, 0 = no control): 92%; Test I disease control rating ([3]; 200 ppm, 0 = no control): 99%
18 | COc1cc(F)c(-c2c(Cl)ncn2-c2ccccc2)c(F)c1 [compound 420] | 100 | 100 | 100 | 0 | 100 | 99 | 100 | –
19 | COc1cc(F)c(-c2c(Br)nc(Br)n2-c2ccc(C)cc2)c(F)c1 [compound 524] | 97 | – | – | – | – | – | – | Test G disease control rating (Septoria tritici; 40 ppm (marked *)): 98* %; Test C disease control rating (Botrytis cinerea; 40 ppm (marked *)): 99* %; Test H disease control rating ([2]; 40 ppm (marked *)): 85* %; Test D disease control rating (Alternaria solani; 40 ppm (marked *)): 100* %; Test F disease control rating (Septoria nodorum; 40 ppm (marked *)): 60* %; Test I disease control rating ([3]; 40 ppm (marked *)): 99* %
20 | COc1ccc(F)c(-c2c(Cl)nc(Br)n2-c2ccc(F)cc2)c1F [compound 314] | 100 | 93 | 99 | 32 | 100 | 100 | 100 | –

From US20110045101A1, “FUNGICIDAL SUBSTITUTED AZOLES” (E.I. Du Pont De Nemours and Company, priority 2009, published 2011)
